Earlier results, collected in paper PMC10814857, “Functional Classification and Interaction Selectivity Landscape of the Human SH3 Domain Superfamily” (Cells, 2024).
pKd: −log10 of the molar value. Read-outs that look alike come from different tables or passages of the source.

Experiments:
[1] = molecular target: PLCG1 SH3 domain; details: PLCG1, SPR, Table S4; ref [75]; cited from earlier work
Method: (§1) page 6: […] […] […] PAK2 […] PXXXPR PXXXPR 1.05 ITC [34] TRSVI ITSN1-2 Synthetic […] Exceptional [W/F][R/W]xSx[A/ 53 ITC [29] peptide G][F/Y][L/V]xGP[ W/L] NCK1-2 N-WASP GP[…] … 147 HSQC [64] VA[…] 199 PLCG1 SOS1 AAPV[…] … 0.20mM SPR [75] AADS[…] 0.40mM AAES[…] 0.70mM AAIA[…] 0.28mM BAIAP2L1 EspFUR45 IPP[…] … 0.5 nM ITC [76] (IRTKS) 9 SORBS2- Synthetic […] Exceptional XRXGXAYLXYVX 38 ITC [29] 1 peptide Synthetic RL[…](L/P) ...

[2] = molecular target: SRC SH3 domain; parameters: method as in 3 sources, one per row (each row's own in cited_ref): ref [23] (a number printed in a supplementary file, which may have a reference list of its own: not looked up in the article's list) ||| ref [62] (a number printed in a supplementary file, which may have a reference list of its own: not looked up in the article's list) ||| ref [17] (a number printed in a supplementary file, which may have a reference list of its own: not looked up in the article's list); details: FL, cited from earlier work
[3] = molecular target: NCK1-1 SH3 domain; details: NCK1-1, HSQC, Table S4; ref [64]; cited from earlier work
[4] = molecular target: GRAP2-2 SH3 domain; details: GRAP2-2, ITC, Table S4, cited from earlier work
Method: as §1

[5] = molecular target: ABL1 SH3 domain; parameters: method as in ref [67] (a number printed in a supplementary file, which may have a reference list of its own: not looked up in the article's list); details: ABL1, FL, Table S4; ref [67]; cited from earlier work
[6] = molecular target: GRB2-1 SH3 domain; details: Table S4, cited from earlier work
Method: as §1

[7] = molecular target: CRK-1 SH3 domain; parameters: method as in ref [71] (a number printed in a supplementary file, which may have a reference list of its own: not looked up in the article's list); details: CRK-1, SPR, Table S4; ref [71]; cited from earlier work
[8] = molecular target: STAC2 SH3 domain; details: STAC2, ITC, Table S4; ref [59]; cited from earlier work
Method: as §1

[9] = molecular target: STAC1 SH3 domain; details: STAC1, ITC, Table S4; ref [59]; cited from earlier work
Method: as §1

[10] = molecular target: bPIX (ARHGEF7) SH3 domain; parameters: method as in 3 sources, one per row (each row's own in cited_ref): ref [33] (a number printed in a supplementary file, which may have a reference list of its own: not looked up in the article's list) ||| ref [60] (a number printed in a supplementary file, which may have a reference list of its own: not looked up in the article's list) ||| ref [34] (a number printed in a supplementary file, which may have a reference list of its own: not looked up in the article's list); details: ITC, cited from earlier work
[11] = molecular target: NCK1-2 SH3 domain; details: NCK1-2, HSQC, Table S4; ref [64]; cited from earlier work
Method: (§2) page 6: […][…] […] PAK2 […] PXXXPR PXXXPR 1.05 ITC [34] TRSVI ITSN1-2 Synthetic […] Exceptional [W/F][R/W]xSx[A/ 53 ITC [29] peptide G][F/Y][L/V]xGP[ W/L] NCK1-2 N-WASP GP[…] … 147 HSQC [64] VA[…] 199 PLCG1 SOS1 AAPV[…] … 0.20mM SPR [75] AADS[…] 0.40mM AAES[…] 0.70mM AAIA[…] 0.28mM BAIAP2L1 EspFUR45 IPP[…] … 0.5 nM ITC [76] (IRTKS) 9 SORBS2- Synthetic […] Exceptional XRXGXAYLXYVX 38 ITC [29] 1 peptide Synthetic RL[…](L/P) ...

[12] = molecular target: p85A SH3 domain; parameters: method as in ref [3] (a number printed in a supplementary file, which may have a reference list of its own: not looked up in the article's list); details: SPR, Table S4, ref [3]; cited from earlier work
[13] = molecular target: GRB2-2 SH3 domain; details: Table S4, cited from earlier work
Method: as §1

[14] = molecular target: FYN SH3 domain; parameters: method as in ref [73] (a number printed in a supplementary file, which may have a reference list of its own: not looked up in the article's list); details: HSQC, Table S4, ref [73], cited from earlier work
[15] = molecular target: SORBS2-1 SH3 domain; details: SORBS2-1, ITC, Table S4; ref [29]; cited from earlier work
Method: as §1

[16] = molecular target: NCK1-3 SH3 domain; details: NCK1-3, HSQC, Table S4; ref [64]; cited from earlier work
Method: as §2

[17] = molecular target: CRK-1 SH3 domain; parameters: method as in 3 sources, one per row (each row's own in cited_ref): ref [15] (a number printed in a supplementary file, which may have a reference list of its own: not looked up in the article's list) ||| ref [69] (a number printed in a supplementary file, which may have a reference list of its own: not looked up in the article's list) ||| ref [17] (a number printed in a supplementary file, which may have a reference list of its own: not looked up in the article's list); details: CRK-1, FL, Table S4, cited from earlier work
[18] = molecular target: EPS8L1 SH3 domain; parameters: method as in ref [7] (a number printed in a supplementary file, which may have a reference list of its own: not looked up in the article's list); details: EPS8L1, ITC, Table S4; ref [7]; cited from earlier work
[19] = molecular target: NCF1-2 (p47phox) SH3 domain; parameters: method as in ref [14] (a number printed in a supplementary file, which may have a reference list of its own: not looked up in the article's list); details: FL, Table S4, ref [14]; cited from earlier work

AADSPPAIPPRQPT [published SOS1 peptide]
pKd [1]: 6.40

AAESPPLLPPREPV [published SOS1 peptide]
pKd [1]: 6.15

AAIAGPPVPPRQST [published SOS1 peptide]
pKd [1]: 6.55

AAPVPPPVPPRRRP [published SOS1 peptide]
pKd [1]: 6.70

APPLPPRNRPRL [published peptide APP12]
pKd ([2]; Table S4, ref [23]): 5.92

APPPPPPSRGG [published N-WASP peptide]
pKd [3]: < 3.00

APSIDRSTKPP [published SLP-76 peptide]
pKd ([4]; ref [55]): 6.17

APSYSPPPPP
pKd [5]: 5.82

APTYPPPAPP
pKd [5]: 5.30

APTYSPPPPP
pKd [5]: 6.40

DSPPAIPPRQPT [published SOS1 peptide]
pKd ([6]; GRB2-1, ITC, ref [79]): 4.26

DVADVPPPLPLKGSVADYGNLMENQDLLGSPTPPPPPPHQRHLPPPLPSKT [published DOCK180 peptide]
pKd [7]: 6.46

EDEPEIPLSPRPRP [published CaV1.1 peptide]
pKd [8]: 5.03
pKd [9]: 5.41

EETAPPVIAPRPDHTKSIYTRSVI [published PAK2 peptide]
pKd ([10]; Table S4, ref [34]): 5.98

ESPPLLPPREPV [published SOS1 peptide]
pKd ([6]; GRB2-1, ITC, ref [79]): 3.93

GPPPPPARGRGA [published N-WASP peptide]
pKd [3]: < 3.00
pKd [11]: 3.83

HSKRPLPPLPSL [published peptide PD1R]
pKd [12]: 4.40

HSKYPLPPLPSL [published peptide PD1]
pKd [12]: 3.92

IAGPPVPPRQST [published SOS1 peptide]
pKd ([6]; GRB2-1, ITC, ref [79]): 4.09

IQPPPVNRNLKPDRK [published Gab2b peptide]
pKd ([13]; GRB2-2, ITC, ref [48]): 4.76

KPSRPPRPSRPPPPTPRRPAS [published Itch peptide]
pKd ([10]; Table S4, ref [33]): 5.80

KRISPPTPKPRPPR [published PI3K-p85a peptide]
Kd ([14]; unit mM in the cell): 0.003 mM

LRRQAPPPPPPS [published N-WASP peptide]
pKd [3]: < 3.00

LRTGEAYLRYVD [published synthetic peptide (SORBS2-1 ligand)]
pKd [15]: 4.42

NENEDKSPYPNPETTGEEDEEEPEMPVGPRPRPLSELHLKEKAVPMPE [published CaV1.2 peptide]
pKd [8]: 4.71

NRMYPPPPPALP [published N-WASP peptide]
pKd [16]: < 6.00

NVNEVKDPYPSADFPGDDEEDEPEIPLSPRPRPLAELQLKEKAVPIPE [published CaV1.1 peptide]
pKd [8]: 5.73
pKd [9]: 6.11

PAPSIDRSTKPPL [published SLP-76 peptide]
pKd ([4]; ref [55]): 6.74
pKd ([13]; GRB2-2, ITC, ref [55]): 5.01

PGPPPPPGLPSD [published N-WASP peptide]
pKd [16]: < 6.00

PKLPPKTYKREH [published SOS1 peptide]
pKd ([13]; GRB2-2, NMR, ref [47]): 3.81

PKPLPRFPKK [published SOS1 peptide]
pKd ([6]; GRB2-1, NMR, ref [47]): 3.60

PPPALPPKKR [published C3G peptide]
pKd ([6]; GRB2-1, FL, ref [15]): 3.85
pKd ([17]; ref [15]): 5.72
pKd ([17]; ref [69]): 5.72

PPPVPPRRRR [published SOS1 peptide]
pKd ([6]; GRB2-1, FL, ref [15]): 5.46
pKd ([17]; ref [15]): 5.28

PPRPLPVAPGSSKA [published PI3K-p85a peptide]
pKd [14]: 4.30

PPRPTPVAPGSSKA [published PI3K-p85a peptide]
pKd [14]: 3.52

PPVPNPDYEPIR [published CD3ε peptide]
pKd [18]: 4.62

PSIDRSTKP [published SLP-76 peptide]
pKd ([4]; ref [57]): 4.52

PSPHGTRRHLPSPP [published SOS1 peptide]
pKd ([6]; GRB2-1, NMR, ref [47]): 3.68

PVPPPVPPRRRP [published SOS1 peptide]
pKd ([6]; GRB2-1, ITC, ref [78]): 4.41
pKd ([6]; GRB2-1, NMR, ref [47]): 4.43
pKd ([13]; GRB2-2, ITC, ref [78]): 3.93
pKd ([13]; GRB2-2, NMR, ref [47]): 3.85

QPPSNPPPRPPAEAR [published p22phox peptide]
pKd [19]: 5.06

QPPSNPPPRPPAEARKKPSE [published p22phox peptide]
pKd [19]: 6.19

RALPPLPRY [published synthetic peptide (SRC ligand)]
pKd ([2]; Table S4, ref [62]): 5.11

RAPTMPPPLPP [published 3BP-1 peptide]
pKd [5]: 4.47

RLPLRPPLPHTS [published synthetic peptide (SORBS2-1 ligand)]
pKd [15]: 3.92

SAPSGPPPPPPSVL [published N-WASP peptide]
pKd [3]: < 3.00
pKd [16]: < 6.00

SLPGPLTPVAEGQEIGMNTETSGTSAREKELSPPPGLPSKIGSISRQSSL [published ST12 peptide]
pKd [7]: 6.04

TAAPPPPPPSRP [published N-WASP peptide]
pKd [3]: < 3.00

VAPPPPPPPPPPPG [published N-WASP peptide]
pKd [16]: < 6.00

VAVPPPPPNRMY [published N-WASP peptide]
pKd [11]: 3.70
pKd [16]: 6.00

VPPPVPPRRR [published SOS1 peptide]
pKd ([6]; GRB2-1, FL, ref [77]): 5.25

VSLARRPLPPLP [published peptide VSL12]
pKd ([2]; Table S4, ref [23]): 6.35

YEVPPPVPPRRR [published SOS1 peptide]
pKd ([6]; GRB2-1, FL, ref [17]): 5.30
pKd ([2]; Table S4, ref [17]): 4.60
pKd ([17]; ref [17]): 5.22
